Where two headings read alike, the source gives them in different places.
Legend:
[1] = system: Pseudomonas sp. strain 3G; format: cell-based
[2] = system: Stenotrophomonas sp. strain 3N; format: cell-based
[3] = system: Brevundimonas sp. strain 2N; format: cell-based
[4] = system: Achromobacter sp. strain 4P; format: cell-based
[5] = system: Stenotrophomonas sp. strain 2L; format: cell-based
[6] = system: Brevundimonas sp. strain 5N; format: cell-based
[7] = system: investigated strains of bacteria; format: cell-based
[8] = system: Stenotrophomonas sp. strain 5L; format: cell-based
[9] = system: Arthrobacter sp. strain 1N; format: cell-based
[10] = system: Pseudomonas sp. strain 4G; format: cell-based
[11] = system: Stenotrophomonas sp. strain 6L; format: cell-based
[12] = system: Brevundimonas sp. strain 6N; format: cell-based
[13] = system: model strain Escherichia coli; settings: according to Spain, 2003; cited from earlier work

| Compound | MIC threshold values of heavy metals ([1]; 24 h) | MIC threshold values of heavy metals [2] | MIC threshold values of heavy metals [3] | MIC threshold values of heavy metals [4] | MIC threshold values of heavy metals [5] | MIC threshold values of heavy metals [6] | Susceptibility of the investigated strains to the heavy metal [7] | MIC threshold values of heavy metals [8] | MIC threshold values of heavy metals [9] | MIC threshold values of heavy metals ([10]; 24 h) | MIC threshold values of heavy metals ([10]; 48 h) | MIC threshold values of heavy metals [11] | MIC threshold values of heavy metals [12] | MIC [13] | further results |
| --- | --- | --- | --- | --- | --- | --- | --- | --- | --- | --- | --- | --- | --- | --- | --- |
| O=S(=O)([O-])[O-].[Cu+2] [Cu(II), Copper sulphate] | 3 mM/L | 3(4) mM/L | 3(4) mM/L | 3 mM/L | 3 mM/L | 3(4) mM/L | resistant | 3 mM/L | 3 mM/L | 3 mM/L | 4 mM/L | 3(4) mM/L | 3(4) mM/L | 1 mM/L | – |
| O=S(=O)([O-])[O-].[Cd+2] [Cd(II), Cadmium sulphate] | 0.1 mM/L | 0.1 mM/L | 0.1 mM/L | 0.1(0.2) mM/L | 0.1 mM/L | 0.1(0.2) mM/L | susceptible | 0.1 mM/L | 0.1 mM/L | 0.1 mM/L | – | 0.1 mM/L | 0.1 mM/L | 0.5 mM/L | Growth of the strains in the presence of the metal salt [7]: None of the investigated strains was able to grow |
| Sodium arsenite [As (III)] | 5 mM/L | 3(5) mM/L | 5(7) mM/L | 5(6) mM/L | 4(6) mM/L | 4(7) mM/L | resistant | 5(7) mM/L | 5(8) mM/L | 5 mM/L | 8 mM/L | 5(7) mM/L | 4(7) mM/L | 0.5 mM/L | – |
| [Cl][Ni][Cl] [Ni(II), Nickel chloride] | 1 mM/L | – | – | – | – | – | – | – | – | 1 mM/L | 2 mM/L | – | – | 1 mM/L | MIC threshold values of heavy metals ([1]; 48 h): 2 mM/L; MIC threshold values of heavy metals ([2]; strain 3N, 24 h): 1 mM/L; MIC threshold values of heavy metals ([2]; strain 3N, 48 h): 2 mM/L; MIC threshold values of heavy metals ([3]; strain 2N, 24 h): 1 mM/L; MIC threshold values of heavy metals ([3]; strain 2N, 48 h): 2 mM/L; MIC threshold values of heavy metals ([4]; strain 4P, 24 h): 1 mM/L; MIC threshold values of heavy metals ([5]; strain 2L, 24 h): 1 mM/L; MIC threshold values of heavy metals ([6]; strain 5N, 24 h): 1 mM/L; Susceptibility of the investigated strains to the heavy metal ([7]; compared with literature data for the model strain): semi-susceptible; MIC threshold values of heavy metals ([8]; strain 5L, 24 h): 1 mM/L; MIC threshold values of heavy metals ([9]; strain 1N, 24 h): 1 mM/L; MIC threshold values of heavy metals ([9]; strain 1N, 48 h): 2 mM/L; MIC threshold values of heavy metals ([11]; strain 6L, 24 h): 1 mM/L; MIC threshold values of heavy metals ([11]; strain 6L, 48 h): 2 mM/L; MIC threshold values of heavy metals ([12]; strain 6N, 24 h): 1 mM/L; MIC threshold values of heavy metals ([12]; strain 6N, 48 h): 2 mM/L |
